Counter-ions that a name gives are not always drawn.
Structure (SMILES) | melting point [°C]
COc1ccc(CNc2nc(CCC(=O)O)nc3sc4c(c23)CCCC4)cc1Cl (as salt: salt) [Example 2 (formula I-I), 3-[4-(3-chloro-4-methoxybenzylamino)-5,6,7,8-tetrahydro-[1]-benzothieno[2,3-d]pyrimidin-2-yl]propionic acid] | 135
CCCc1nn(C)c2c(NCc3ccc(OC)c(Cl)c3)nc(CCC(=O)O)nc12 [Example 2 (formula I), 3-[7-(3-chloro-4-methoxybenzylamino)-1-methyl-3-propyl-1H-pyrazolo-[4,3-d]pyrimidin-5-yl]propionic acid] | 178
COc1ccc(CNc2nc(CCC(=O)O)nc3sc4c(c23)CCCC4)cc1Cl [Example 2 (formula I-I), 3-[4-(3-chloro-4-methoxybenzylamino)-5,6,7,8-tetrahydro-[1]-benzothieno[2,3-d]pyrimidin-2-yl]propionic acid] | 229

Now from value to compound:

melting point [°C] | Structure (SMILES)
218 | COc1ccc(CNc2nc(CCC(=O)O)nc3sc4ccccc4c23)cc1Cl [Example 2 (formula I-II), 3-[4-(3-chloro-4-methoxybenzylamino)benzothieno[2,3-d]pyrimidin-2-yl]propionic acid]
203 to 204 | COC(=O)c1ccc(-c2nc(NCc3ccc(OC)c(Cl)c3)c3c(n2)sc2ccccc23)cc1 [Example 3 (formula I-II), methyl 4-[4-(3-chloro-4-methoxybenzylamino)-[1]-benzothieno[2,3-d]pyrimidin-2-yl]benzoate]
